What is called IC50 is the concentration at which inhibition is half-maximal.

In the test the target is T1, human histamine H3 receptor (Homo sapiens, UniProt Q9Y5N1).
T1 construct: host or cells: cells expressing the human H3 receptor
T1 sequence (Q9Y5N1 whole entry): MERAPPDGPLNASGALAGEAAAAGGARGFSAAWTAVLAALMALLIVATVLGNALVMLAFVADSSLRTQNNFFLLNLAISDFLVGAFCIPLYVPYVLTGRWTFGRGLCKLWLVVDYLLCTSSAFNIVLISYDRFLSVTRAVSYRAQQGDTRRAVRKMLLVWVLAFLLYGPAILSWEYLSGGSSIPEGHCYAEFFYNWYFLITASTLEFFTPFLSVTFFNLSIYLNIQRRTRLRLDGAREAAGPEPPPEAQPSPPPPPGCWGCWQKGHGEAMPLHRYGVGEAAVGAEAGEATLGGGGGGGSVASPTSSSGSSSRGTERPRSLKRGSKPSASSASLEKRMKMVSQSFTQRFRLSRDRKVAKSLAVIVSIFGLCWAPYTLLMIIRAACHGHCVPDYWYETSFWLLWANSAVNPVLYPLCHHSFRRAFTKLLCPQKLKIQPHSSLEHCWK
In words: H3 GTPγS assay (SPA method), histamine H3 in vitro assay. Format: biochemical. Particulars: GTPγ[35S] binding to membranes of cells expressing human H3; antagonist mode with R-γ-Me-Histamine at EC80 (30 nM); in one embodiment HCl salts tested; read-out: Potency (functional potency as indicated by IC50). For orientation: Binding of GTPγS marks nucleotide exchange on a G protein.
As to `Clc1ccc(-c2ccc3c(c2)nc2n3CCN(C3CCC3)CC2)cc1Cl` [Compound 211, 3-cyclobutyl-8-(3,4-dichlorophenyl)-2,3,4,5-tetrahydro-1H-benzo[4,5]imidazo[1,2-d][1,4]diazepine], the IC50 was at most 100 nM.

As for `CC(C)(C)c1ccc(-c2ccc3c(c2)nc2n3CCN(C3CCC3)CC2)cc1` [Compound 212, 8-(4-(tert-butyl)phenyl)-3-cyclobutyl-2,3,4,5-tetrahydro-1H-benzo[4,5]imidazo[1,2-d][1,4]diazepine], the IC50 is at most 10 nM.

With `FC(F)(F)c1ccc(-c2ccc3c(c2)nc2n3CCN(C3CCC3)CC2)cc1` [Compound 213, 3-cyclobutyl-8-(4-(trifluoromethyl)phenyl)-2,3,4,5-tetrahydro-1H-benzo[4,5]imidazo[1,2-d][1,4]diazepine], the IC50 is at most 100 nM.

Regarding `c1ccc2cc(-c3ccc4c(c3)nc3n4CCN(C4CCC4)CC3)ccc2c1` [Compound 214, 3-cyclobutyl-8-(naphthalen-2-yl)-2,3,4,5-tetrahydro-1H-benzo[4,5]imidazo[1,2-d][1,4]diazepine], the IC50 was at most 100 nM.

Consider `O=c1[nH]c2cc(-c3ccc4c(c3)nc3n4CCN(C4CCC4)CC3)ccc2o1` [Compound 215, 5-(3-cyclobutyl-2,3,4,5-tetrahydro-1H-benzo[4,5]imidazo[1,2-d][1,4]diazepin-8-yl)benzo[d]oxazol-2(3H)-one], for which the IC50 was at most 100 nM.

As to `O=C1CCc2cc(-c3ccc4c(c3)nc3n4CCN(C4CCC4)CC3)ccc2N1` [Compound 216, 6-(3-cyclobutyl-2,3,4,5-tetrahydro-1H-benzo[4,5]imidazo[1,2-d][1,4]diazepin-8-yl)-3,4-dihydroquinolin-2(1H)-one], the IC50 is at most 10 nM.

Regarding `c1nc2cc(-c3ccc4c(c3)nc3n4CCN(C4CCC4)CC3)ccc2[nH]1` [Compound 217, 8-(1H-benzo[d]imidazol-5-yl)-3-cyclobutyl-2,3,4,5-tetrahydro-1H-benzo[4,5]imidazo[1,2-d][1,4]diazepine], the IC50 was at most 100 nM.

With `c1cc2c(cc1-c1cnc3[nH]ncc3c1)nc1n2CCN(C2CCC2)CC1` [Compound 223, 3-cyclobutyl-8-(1H-pyrazolo[3,4-b]pyridin-5-yl)-2,3,4,5-tetrahydro-1H-benzo[4,5]imidazo[1,2-d][1,4]diazepine], the IC50 was at most 10 nM.

With `c1ccc(CN2CCN(c3ccc4c(c3)nc3n4CCN(C4CCC4)CC3)CC2)cc1` [Compound 224, 8-(4-benzylpiperazin-1-yl)-3-cyclobutyl-2,3,4,5-tetrahydro-1H-benzo[4,5]imidazo[1,2-d][1,4]diazepine], the IC50 is at most 10 nM.

Take `c1cc2c(cc1N1CCC(N3CCOCC3)CC1)nc1n2CCN(C2CCC2)CC1` [Compound 225, 4-(1-(3-cyclobutyl-2,3,4,5-tetrahydro-1H-benzo[4,5]imidazo[1,2-d][1,4]diazepin-8-yl)piperidin-4-yl)morpholine]: the IC50 was at most 10 nM.

In the case of `c1cc2c(cc1N1CCCC1)nc1n2CCN(C2CCC2)CC1` [Compound 226, 3-cyclobutyl-8-(pyrrolidin-1-yl)-2,3,4,5-tetrahydro-1H-benzo[4,5]imidazo[1,2-d][1,4]diazepine], the IC50 is at most 100 nM.

Consider `c1ccc(C2CCN(c3ccc4c(c3)nc3n4CCN(C4CCC4)CC3)CC2)cc1` [Compound 227, 3-cyclobutyl-8-(4-phenylpiperidin-1-yl)-2,3,4,5-tetrahydro-1H-benzo[4,5]imidazo[1,2-d][1,4]diazepine], for which the IC50 is at most 100 nM.

Regarding `N#Cc1ccc(N2CCN(c3ccc4c(c3)nc3n4CCN(C4CCC4)CC3)CC2)cc1` [Compound 228, 4-(4-(3-cyclobutyl-2,3,4,5-tetrahydro-1H-benzo[4,5]imidazo[1,2-d][1,4]diazepin-8-yl)piperazin-1-yl)benzonitrile], the IC50 is at most 10 nM.

Regarding `c1ccc(N2CCN(c3ccc4c(c3)nc3n4CCN(C4CCC4)CC3)CC2)cc1` [Compound 229, 3-cyclobutyl-8-(4-phenylpiperazin-1-yl)-2,3,4,5-tetrahydro-1H-benzo[4,5]imidazo[1,2-d][1,4]diazepine], the IC50 is at most 10 nM.
